From the Kinase Knowledgebase extract (Sharma et al. 2016)

Target: EGFR (UniProt P00533)
Sequence (P00533 whole entry, looked up): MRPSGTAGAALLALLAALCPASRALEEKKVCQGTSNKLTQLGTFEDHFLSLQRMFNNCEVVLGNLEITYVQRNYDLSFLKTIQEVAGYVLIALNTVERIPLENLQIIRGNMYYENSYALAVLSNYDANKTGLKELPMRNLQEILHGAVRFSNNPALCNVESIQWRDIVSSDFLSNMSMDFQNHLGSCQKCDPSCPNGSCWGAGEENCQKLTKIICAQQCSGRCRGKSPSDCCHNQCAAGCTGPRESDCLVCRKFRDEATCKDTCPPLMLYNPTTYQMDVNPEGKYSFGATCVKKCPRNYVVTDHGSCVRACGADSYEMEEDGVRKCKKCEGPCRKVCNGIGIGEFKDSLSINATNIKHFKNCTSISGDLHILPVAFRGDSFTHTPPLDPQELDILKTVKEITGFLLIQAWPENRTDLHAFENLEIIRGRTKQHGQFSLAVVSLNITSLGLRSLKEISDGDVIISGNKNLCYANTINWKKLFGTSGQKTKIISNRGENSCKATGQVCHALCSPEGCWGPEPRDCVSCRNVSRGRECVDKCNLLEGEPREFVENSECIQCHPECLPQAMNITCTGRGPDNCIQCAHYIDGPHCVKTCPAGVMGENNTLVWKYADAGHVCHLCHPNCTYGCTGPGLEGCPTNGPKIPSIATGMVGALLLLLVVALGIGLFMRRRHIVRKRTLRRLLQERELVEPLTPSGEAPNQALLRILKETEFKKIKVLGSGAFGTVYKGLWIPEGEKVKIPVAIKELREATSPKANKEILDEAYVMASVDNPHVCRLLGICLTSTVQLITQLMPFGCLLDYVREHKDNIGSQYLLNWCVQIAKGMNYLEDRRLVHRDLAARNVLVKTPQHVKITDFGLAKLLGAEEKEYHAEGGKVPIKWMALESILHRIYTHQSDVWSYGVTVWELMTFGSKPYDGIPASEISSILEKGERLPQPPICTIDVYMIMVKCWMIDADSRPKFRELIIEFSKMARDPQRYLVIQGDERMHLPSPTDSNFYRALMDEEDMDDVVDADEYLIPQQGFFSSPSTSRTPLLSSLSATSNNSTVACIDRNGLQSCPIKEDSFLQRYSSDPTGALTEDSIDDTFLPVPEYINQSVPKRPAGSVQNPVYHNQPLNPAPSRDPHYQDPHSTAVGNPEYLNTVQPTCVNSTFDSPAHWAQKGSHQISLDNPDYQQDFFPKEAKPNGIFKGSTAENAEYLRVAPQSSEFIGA

Fc1cccc(COc2ccc(Nc3ncncc3C#Cc3ccnc(N4CCOCC4)n3)cc2Cl)c1
IC50: ≤ 10 µM
